Here are results for 47 molecules from article PMC11995724, “Antibiotic target discovery by integrated phenotypic and activity-based profiling of electrophilic fragments” (Cell chemical biology, 2025).

The series in a line: in vitro. As to conditions: human, hek293t cells.
Usually viability stands for a read-out of living cells in per cent, often relative to untreated cells. For `C=CC(=O)N1CCC(C(=O)N2CCN(CC(C)C)C(=O)C2C)CC1` (centres unmarked) [2-B08, 3-methyl-1-(2-methylpropyl)-4-[1-(prop-2-enoyl)piperidine-4-carbonyl]piperazin-2-one], the viability at 48 h, 25 µM was 83.8%.
In the case of `C=CC(=O)NCC(=C)c1ccccc1` [2-B09, N-(2-phenylprop-2-en-1-yl)prop-2-enamide], the viability at 48 h, 25 µM was 57%.
For the molecule `C=CC(=O)N1CCC(C(=O)NC(C)(c2noc(C)n2)C2CC2)CC1` (centres unmarked) [2-B10, N-[1-cyclopropyl-1-(5-methyl-1,2,4-oxadiazol-3-yl)ethyl]-1-(prop-2-enoyl)piperidine-4-carboxamide], the viability at 48 h, 25 µM was determined as 79.8%.
To `C=CC(=O)NCCC(=O)N1CCC(O)(c2c(F)cccc2F)CC1` [2-B11, N-{3-[4-(2,6-difluorophenyl)-4-hydroxypiperidin-1-yl]-3-oxopropyl}prop-2-enamide] belongs 60%; to `C=CC(=O)N1CCC(C(=O)NC2CCOC3(CCSCC3)C2)CC1` (centres unmarked) [2-B12, N-{1-oxa-9-thiaspiro[5.5]undecan-4-yl}-1-(prop-2-enoyl)piperidine-4-carboxamide], 97.1%; to `C=CC(=O)NCCc1ccc(S(N)(=O)=O)cc1` [2-B13, N-[2-(4-sulfamoylphenyl)ethyl]prop-2-enamide], 77.8%.
To `C=CC(=O)N(C)CC(=O)NCc1nc2cc(C)ccc2n1C` [2-B14, N-({[(1,5-dimethyl-1H-1,3-benzodiazol-2-yl)methyl]carbamoyl}methyl)-N-methylprop-2-enamide] belongs 37.9%; to `C=CC(=O)NCC1CCCc2nccn21` (centres unmarked) [2-B15, N-({5H,6H,7H,8H-imidazo[1,2-a]pyridin-5-yl}methyl)prop-2-enamide], 76.8%; to `C=CC(=O)N1CCC(C(=O)N[C@@H](C)C(=O)NC)(c2ccccc2)CC1` [2-B16, (2S)-N-methyl-2-{[4-phenyl-1-(prop-2-enoyl)piperidin-4-yl]formamido}propanamide], 87%.
For `C=CC(=O)NCc1ccnc(OC2CCOCC2)c1` [2-B17, N-{[2-(oxan-4-yloxy)pyridin-4-yl]methyl}prop-2-enamide] the value was 69.9%.
In the case of `C=CC(=O)N(CC)CC(=O)N1CCn2c(nc(C)c2C)C1` [2-B18, N-(2-{2,3-dimethyl-5H,6H,7H,8H-imidazo[1,2-a]pyrazin-7-yl}-2-oxoethyl)-N-ethylprop-2-enamide], the viability at 48 h, 25 µM stood at 94.8%.
On to `C=CC(=O)N(C)Cc1cc2sccc2n1C` [2-B19, N-methyl-N-({4-methyl-4H-thieno[3,2-b]pyrrol-5-yl}methyl)prop-2-enamide], for which the viability at 48 h, 25 µM amounted to 75.1%.
For `C=CC(=O)NCc1ccc(C(=O)N2CCCCC(SC)C2)cc1` (centres unmarked) [2-B20, N-({4-[3-(methylsulfanyl)azepane-1-carbonyl]phenyl}methyl)prop-2-enamide] the value was 57.3%; for `C=CC(=O)NC(Cn1ccccc1=O)c1ccccc1` (centres unmarked) [2-B21, N-[2-(2-oxo-1,2-dihydropyridin-1-yl)-1-phenylethyl]prop-2-enamide], 72.3%; for `C=CC(=O)N(C)CC(=O)N1CCC(C)(c2nc(C)no2)CC1` [2-B22, N-methyl-N-{2-[4-methyl-4-(3-methyl-1,2,4-oxadiazol-5-yl)piperidin-1-yl]-2-oxoethyl}prop-2-enamide], 57.9%.
For `C=CC(=O)N1CCCC(n2cncn2)C1` (centres unmarked) [2-C03, 1-[3-(1H-1,2,4-triazol-1-yl)piperidin-1-yl]prop-2-en-1-one], the viability at 48 h, 25 µM turned out to be 90.2%.
`C=CC(=O)NCCC(=O)N1CCc2ncncc2C1` [2-C04, N-(3-oxo-3-{5H,6H,7H,8H-pyrido[4,3-d]pyrimidin-6-yl}propyl)prop-2-enamide]: the viability at 48 h, 25 µM was found to be 93.3%.
For `C=CC(=O)NCCN1C(=O)SC(=Cc2ccc(Cl)cc2)C1=O` [2-C05, N-(2-{5-[(4-chlorophenyl)methylidene]-2,4-dioxo-1,3-thiazolidin-3-yl}ethyl)prop-2-enamide] the value was 87.2%.
On to `C=CC(=O)N1CCOC2(CCS(=O)(=O)C2)C1` (centres unmarked) [2-C06, 9-(prop-2-enoyl)-6-oxa-2lambda6-thia-9-azaspiro[4.5]decane-2,2-dione], for which the viability at 48 h, 25 µM stood at 101%.
Turning to `C=CC(=O)N(Cc1cc(Cl)ccc1OC)C1CCCOCC1` (centres unmarked) [2-C07, N-[(5-chloro-2-methoxyphenyl)methyl]-N-(oxepan-4-yl)prop-2-enamide], the viability at 48 h, 25 µM amounted to 95.3%.
To `C=CC(=O)Nc1ccc(S(C)(=O)=O)cc1OCC` [2-C08, N-(2-ethoxy-4-methanesulfonylphenyl)prop-2-enamide] belongs 0.998%.
For `C=CC(=O)NCc1csc(C(C)(C)C)n1` [2-C09, N-[(2-tert-butyl-1,3-thiazol-4-yl)methyl]prop-2-enamide] the value was 86.1%; for `C=CC(=O)N1CCOCC2(CCOCC2)C1` [2-C10, 1-{3,8-dioxa-11-azaspiro[5.6]dodecan-11-yl}prop-2-en-1-one], 85.4%; for `C=CC(=O)NC(Cn1cnc2ccccc21)c1ccc(F)cc1` (centres unmarked) [2-C11, N-[2-(1H-1,3-benzodiazol-1-yl)-1-(4-fluorophenyl)ethyl]prop-2-enamide], 90.5%.
To `C=CC(=O)NCCC(=O)N1CCCC1c1cc(C)on1` (centres unmarked) [2-C12, N-{3-[2-(5-methyl-1,2-oxazol-3-yl)pyrrolidin-1-yl]-3-oxopropyl}prop-2-enamide] belongs 81.3%; to `C=CC(=O)N(Cc1cnn(C(C)C)c1)c1ccc2nc(C)oc2c1` [2-C13, N-(2-methyl-1,3-benzoxazol-6-yl)-N-{[1-(propan-2-yl)-1H-pyrazol-4-yl]methyl}prop-2-enamide], 185%.
Turning to `C=CC(=O)NC(c1noc(O)n1)C(C)(C)C` (centres unmarked) [2-C14, N-[1-(5-hydroxy-1,2,4-oxadiazol-3-yl)-2,2-dimethylpropyl]prop-2-enamide], the viability at 48 h, 25 µM was 96.4%.
In the case of `C=CC(=O)Nc1cc(C)nn1-c1ccccc1F` [2-C15, N-[1-(2-fluorophenyl)-3-methyl-1H-pyrazol-5-yl]prop-2-enamide], the viability at 48 h, 25 µM amounted to 180%.
To `C=CC(=O)N1CCC(O)(C(F)(F)C(N)=O)C1` (centres unmarked) [2-C16, 2,2-difluoro-2-[3-hydroxy-1-(prop-2-enoyl)pyrrolidin-3-yl]acetamide] belongs 98.2%; to `C=CC(=O)N1CCC(Cn2nc(C)cc2C)CC1` [2-C17, 1-{4-[(3,5-dimethyl-1H-pyrazol-1-yl)methyl]piperidin-1-yl}prop-2-en-1-one], 182%.
Consider `C=CC(=O)NCc1cc(-c2ccccc2OC)no1` [2-C18, N-{[3-(2-methoxyphenyl)-1,2-oxazol-5-yl]methyl}prop-2-enamide], for which the viability at 48 h, 25 µM is 72.8%.
Turning to `C=CC(=O)N1CCC(Cc2ccnn2C)CC1` [2-C19, 1-{4-[(1-methyl-1H-pyrazol-5-yl)methyl]piperidin-1-yl}prop-2-en-1-one], the viability at 48 h, 25 µM was found to be 74.8%.
In the case of `C=CC(=O)Nc1ccc(C(=O)N2CCCCC2c2noc(C)n2)cc1` (centres unmarked) [2-C20, N-{4-[2-(5-methyl-1,2,4-oxadiazol-3-yl)piperidine-1-carbonyl]phenyl}prop-2-enamide], the viability at 48 h, 25 µM was 77.3%.
For `C=CC(=O)N1CCCC1c1nc(N(C)C)no1` (centres unmarked) [2-C21, 1-{2-[3-(dimethylamino)-1,2,4-oxadiazol-5-yl]pyrrolidin-1-yl}prop-2-en-1-one], the viability at 48 h, 25 µM came to 191%.
For `C=CC(=O)Nc1cc(C(=O)CC)ccc1F` [2-C22, N-(2-fluoro-5-propanoylphenyl)prop-2-enamide] the value was 84.8%; for `C=CC(=O)NCC(C)Cn1ccc(C)n1` (centres unmarked) [2-D03, N-[2-methyl-3-(3-methyl-1H-pyrazol-1-yl)propyl]prop-2-enamide], 99.9%; for `C=CC(=O)N1CCC(C(=O)NCCc2c(C)n[nH]c2C)CC1` [2-D04, N-[2-(3,5-dimethyl-1H-pyrazol-4-yl)ethyl]-1-(prop-2-enoyl)piperidine-4-carboxamide], 88.7%.
As for `C=CC(=O)NCCc1nc(C)cs1` [2-D05, N-[2-(4-methyl-1,3-thiazol-2-yl)ethyl]prop-2-enamide], the viability at 48 h, 25 µM was 70.3%.
As for `C=CC(=O)N1CCC(C(=O)N(C)Cc2ccc([S+](C)[O-])cc2)CC1` (centres unmarked) [2-D06, N-[(4-methanesulfinylphenyl)methyl]-N-methyl-1-(prop-2-enoyl)piperidine-4-carboxamide], the viability at 48 h, 25 µM worked out at 76.4%.
Regarding `C=CC(=O)NC1(c2nccc(C(F)(F)F)n2)CC1` [2-D07, N-{1-[4-(trifluoromethyl)pyrimidin-2-yl]cyclopropyl}prop-2-enamide], the viability at 48 h, 25 µM came to 74.9%.
`C=CC(=O)N1CCC(C(=O)Nc2ccc(N(C)C(C)=O)cc2)CC1` [2-D08, N-[4-(N-methylacetamido)phenyl]-1-(prop-2-enoyl)piperidine-4-carboxamide]: the viability at 48 h, 25 µM was 81.5%.
Take `C=CC(=O)N(C)Cc1cncn1C` [2-D09, N-methyl-N-[(1-methyl-1H-imidazol-5-yl)methyl]prop-2-enamide]: the viability at 48 h, 25 µM amounted to 61.2%.
For `C=CC(=O)N1CCC(C(=O)N2CCC(C(=O)NC3CC3)CC2)CC1` [2-D10, N-cyclopropyl-1-[1-(prop-2-enoyl)piperidine-4-carbonyl]piperidine-4-carboxamide], the viability at 48 h, 25 µM came out at 76.9%.
To `C=CC(=O)NCc1cnc2ccsc2c1` [2-D11, N-({thieno[3,2-b]pyridin-6-yl}methyl)prop-2-enamide] belongs 74.3%; to `C=CC(=O)N1CCC(C(=O)N2CCC[C@H]2c2ncn[nH]2)CC1` [2-D12, 1-{4-[(2S)-2-(1H-1,2,4-triazol-5-yl)pyrrolidine-1-carbonyl]piperidin-1-yl}prop-2-en-1-one], 81.3%; to `C=CC(=O)N(Cc1cn(CC)nc1C)C1CC1` [2-D13, N-cyclopropyl-N-[(1-ethyl-3-methyl-1H-pyrazol-4-yl)methyl]prop-2-enamide], 76.3%.
On to `C=CC(=O)N1CCC(C(=O)NCC(C)(C)C2(O)CCCC2)CC1` [2-D14, N-[2-(1-hydroxycyclopentyl)-2-methylpropyl]-1-(prop-2-enoyl)piperidine-4-carboxamide], for which the viability at 48 h, 25 µM turned out to be 76.9%.
